Experiment [1] addresses α2. The experiment is described as follows: receptor binding profile, α2. The conditions noted are these: read-out: α2 Affinity is expressed as IC50.
Experiment [2] deals with D1 (Rattus norvegicus, UniProt P18901). The experiment is described as follows: receptor binding profile, D1. The conditions noted are these: read-out: D1 Affinity is expressed as IC50.
For experiment [3], the target named is D2 (Rattus norvegicus, UniProt P61169). The experiment is described as follows: receptor binding profile, D2. The conditions noted are these: read-out: D2 Affinity is expressed as IC50.
Chain of D2 (P61169 whole entry): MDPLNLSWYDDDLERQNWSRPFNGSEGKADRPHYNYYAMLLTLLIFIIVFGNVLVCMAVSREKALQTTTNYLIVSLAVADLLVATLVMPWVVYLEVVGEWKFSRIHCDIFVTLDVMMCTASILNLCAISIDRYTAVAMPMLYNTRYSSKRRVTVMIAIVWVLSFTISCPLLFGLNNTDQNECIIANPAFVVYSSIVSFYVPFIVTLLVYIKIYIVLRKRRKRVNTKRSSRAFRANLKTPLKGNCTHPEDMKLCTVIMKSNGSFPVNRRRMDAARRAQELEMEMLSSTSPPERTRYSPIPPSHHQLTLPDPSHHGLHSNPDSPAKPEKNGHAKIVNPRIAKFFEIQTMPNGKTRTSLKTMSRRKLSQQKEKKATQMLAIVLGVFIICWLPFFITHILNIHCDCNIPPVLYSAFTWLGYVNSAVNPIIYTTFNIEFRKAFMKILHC
The target in experiment [4] is T1, 5-HT1A receptor sites (Rattus norvegicus, UniProt P19327).
T1 sequence (P19327 1-422): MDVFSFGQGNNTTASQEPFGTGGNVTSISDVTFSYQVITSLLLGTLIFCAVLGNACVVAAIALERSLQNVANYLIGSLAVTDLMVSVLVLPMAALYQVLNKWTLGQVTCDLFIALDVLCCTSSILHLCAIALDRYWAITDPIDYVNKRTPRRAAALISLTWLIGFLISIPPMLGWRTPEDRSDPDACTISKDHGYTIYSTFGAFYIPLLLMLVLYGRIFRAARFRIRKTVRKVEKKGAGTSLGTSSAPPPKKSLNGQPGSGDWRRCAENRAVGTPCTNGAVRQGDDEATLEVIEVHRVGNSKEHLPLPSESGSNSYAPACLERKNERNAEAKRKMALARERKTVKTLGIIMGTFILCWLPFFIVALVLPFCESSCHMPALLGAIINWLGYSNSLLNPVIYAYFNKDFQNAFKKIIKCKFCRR
Put plainly: receptor binding profile, 5-HT1A. The conditions noted are these: read-out: 5-HT1A Affinity is expressed as IC50.
Description: The affinity of the compounds of the present invention towards 5-HT1A receptor sites can be assessed by evaluating the binding profile of the compounds of formula (I).

Experiment [5] addresses 5-HT2 (Rattus norvegicus, UniProt P14842). Put plainly: receptor binding profile, 5-HT2. The conditions noted are these: read-out: 5-HT2 Affinity is expressed as IC50.
The target of experiment [6] is α1. The experiment is described as follows: receptor binding profile, α1. The settings on record: read-out: α1 Affinity is expressed as IC50.

Structures can show the parent of a compound that is named as a salt.

Chain of 5-HT2 (P14842 whole entry): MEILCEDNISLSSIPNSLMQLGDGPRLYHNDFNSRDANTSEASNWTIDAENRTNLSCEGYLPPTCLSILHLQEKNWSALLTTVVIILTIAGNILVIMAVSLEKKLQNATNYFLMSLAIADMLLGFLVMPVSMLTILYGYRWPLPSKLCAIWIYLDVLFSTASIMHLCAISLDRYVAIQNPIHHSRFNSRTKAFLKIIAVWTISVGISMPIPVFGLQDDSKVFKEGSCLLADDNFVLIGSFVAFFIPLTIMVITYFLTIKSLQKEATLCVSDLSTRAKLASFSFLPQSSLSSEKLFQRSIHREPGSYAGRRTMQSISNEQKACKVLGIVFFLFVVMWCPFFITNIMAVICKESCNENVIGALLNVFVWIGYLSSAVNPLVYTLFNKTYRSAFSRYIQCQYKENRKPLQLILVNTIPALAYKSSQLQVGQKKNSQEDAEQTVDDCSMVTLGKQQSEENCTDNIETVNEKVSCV
Chain of D1 (P18901 whole entry): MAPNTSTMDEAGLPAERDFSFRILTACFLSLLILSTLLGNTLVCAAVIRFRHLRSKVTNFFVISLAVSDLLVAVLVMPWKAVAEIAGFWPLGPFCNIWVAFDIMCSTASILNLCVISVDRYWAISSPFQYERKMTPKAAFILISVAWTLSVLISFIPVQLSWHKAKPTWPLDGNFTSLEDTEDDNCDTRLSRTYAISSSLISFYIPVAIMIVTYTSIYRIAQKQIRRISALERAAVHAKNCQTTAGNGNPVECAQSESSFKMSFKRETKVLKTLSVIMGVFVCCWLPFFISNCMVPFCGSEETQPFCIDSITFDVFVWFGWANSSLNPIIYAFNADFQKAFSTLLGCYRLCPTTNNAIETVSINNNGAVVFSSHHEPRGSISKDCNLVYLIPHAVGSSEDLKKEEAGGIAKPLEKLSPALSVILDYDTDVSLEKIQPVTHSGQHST

Broadly, the IC50 is the concentration that gives 50% inhibition. As for “5-Methoxy-2-[4-(4-phenyl-piperazin-1-yl)-butyl]-4,5-dihydro-naphtho[1,2-d]thiazole hydrochloride [(11)]”, the IC50 was 18 nM in experiment [1]; 1770 nM in experiment [2]; 24 nM in experiment [3]; 10 nM in experiment [4]; 66 nM in experiment [5]; 52 nM in experiment [6].

“5-Methoxy-2-{4-[4-(2-methoxy-phenyl)-piperazin-1-yl]-butyl}-4,5-dihydro-naphtho[1,2-d]thiazole hydrochloride [(13)]”: the IC50 was determined as 46 nM in experiment [1]; 8 nM in experiment [3]; 3.7 nM in experiment [4]; 240 nM in experiment [5]; 35 nM in experiment [6].

On to “5-Methoxy-2-{4-[4-(2-pyridyl)-piperazin-1-yl]-butyl}-4,5-dihydro-naphtho[1,2-d]thiazole hydrochloride [(12)]”, for which the IC50 in experiment [1] was 390 nM; in experiment [2], 1490 nM; in experiment [3] it was 61 nM; in experiment [4], 8.2 nM; in experiment [5] it was 82 nM; in experiment [6], 190 nM.

On to “6-Methoxy-2-[4-(4-phenyl-piperazin-1-yl)-butyl]-4,5-dihydro-naphtho[1,2-d]thiazole hydrochloride [(10)]”, for which the IC50 in experiment [1] was 3770 nM; in experiment [2], over 10000 nM; in experiment [3], 680 nM; in experiment [4], 400 nM; in experiment [5], 3180 nM; in experiment [6], 1140 nM.

Consider “6-Methoxy-2-{4-(4-(2-methoxy-phenyl)-piperazin-1-yl]-butyl}-4,5-dihydro-naphtho[1,2-d]thiazole hydrochloride [(1)]”, for which the IC50 was 92 nM in experiment [1]; 590 nM in experiment [2]; 20 nM in experiment [3]; 3.2 nM in experiment [4]; 250 nM in experiment [5]; 52 nM in experiment [6].

For “7-Methoxy-2-[4-(4-phenyl-piperazin-1-yl)-butyl]-4,5-dihydro-naphtho[1,2-d]thiazole hydrochloride [(7)]”, the IC50 in experiment [1] came out at 500 nM; in experiment [2], 1180 nM; in experiment [3], 25 nM; in experiment [4], 12 nM; in experiment [5], 870 nM; in experiment [6] it was 49 nM.

Take “7-Methoxy-2-{4-[4-(2-methoxy-phenyl)-piperazin-1-yl]-butyl}-4,5-dihydro-naphtho[1,2-d]thiazole hydrochloride [(8)]”: the IC50 in experiment [1] was 380 nM; in experiment [2] it was 1610 nM; in experiment [3], 150 nM; in experiment [4], 7 nM; in experiment [5], 720 nM; in experiment [6], 200 nM.

Regarding “7-Methoxy-2-{4-[4-(2-pyridyl)-piperazin-1-yl]-butyl}-4,5-dihydro-naphtho[1,2-d]thiazole hydrochloride [(9)]”, the half-inhibitory concentration (IC50) in experiment [1] worked out at 20 nM; in experiment [2] it was 430 nM; in experiment [3] it was 11 nM; in experiment [4], 4.1 nM; in experiment [5], 55 nM; in experiment [6] it was 58 nM.

For the compound `c1ccc(N2CCN(Cc3nc4c(s3)CCc3ccccc3-4)CC2)cc1` [(2), 2-[(4-phenyl-piperazin-1-yl)-methyl]-4,5 dihydronaphtho[1,2-d]thiazole hydrocloride], the IC50 stood at 300 nM in experiment [1], 42 nM in experiment [4], 300 nM in experiment [5] and 130 nM in experiment [6].

On to `c1ccc(N2CCN(CCc3nc4c(s3)CCc3ccccc3-4)CC2)cc1` [(3)], for which the IC50 amounted to 160 nM in experiment [1], 170 nM in experiment [4], 63 nM in experiment [5] and 110 nM in experiment [6].

For `c1ccc(N2CCN(CCCc3nc4c(s3)CCc3ccccc3-4)CC2)cc1` [(4), 2-[3-(4-phenyl-piperazin-1-yl)-propyl]-4,5-dihydronaphtho[1,2-d]thiazole hydrocloride], the IC50 in experiment [1] was 110 nM; in experiment [4], 69 nM; in experiment [5], 280 nM; in experiment [6], 120 nM.

As to `c1ccc(N2CCN(CCCCc3nc4c(s3)CCc3ccccc3-4)CC2)cc1` [(5), 2-[4-(4-phenyl-piperazin-1-yl)-butyl]-4,5-dihydronaphtho[1,2-d]thiazole hydrocloride], the IC50 in experiment [1] stood at 260 nM; in experiment [4], 67 nM; in experiment [5], 66 nM; in experiment [6] it was 170 nM.

Turning to `COc1ccc2c(c1)CCc1sc(CCCN3CCN(c4ccccc4OC)CC3)nc1-2` [(6), 7-Methoxy-2-{3-[4-(2-methoxy-phenyl) -piperazin-1-yl]-propyl}-4,5-dihydro-naphtho[1,2-d]thiazole hydrochloride], the values for the IC50 in experiment [1] and in experiment [6] were 160 nM and 90 nM, respectively.
